Tests used:
Test in all cases: fluorogenic HDAC8 inhibitor screening kit
Assay type in all cases: biochemical
[1] = molecular target: T1, HDAC8 (histone deacetylase family member 8) (Homo sapiens, UniProt Q9BY41); conditions: read-out: % inhibition at 24.2 μM
T1 sequence (Q9BY41 1-377): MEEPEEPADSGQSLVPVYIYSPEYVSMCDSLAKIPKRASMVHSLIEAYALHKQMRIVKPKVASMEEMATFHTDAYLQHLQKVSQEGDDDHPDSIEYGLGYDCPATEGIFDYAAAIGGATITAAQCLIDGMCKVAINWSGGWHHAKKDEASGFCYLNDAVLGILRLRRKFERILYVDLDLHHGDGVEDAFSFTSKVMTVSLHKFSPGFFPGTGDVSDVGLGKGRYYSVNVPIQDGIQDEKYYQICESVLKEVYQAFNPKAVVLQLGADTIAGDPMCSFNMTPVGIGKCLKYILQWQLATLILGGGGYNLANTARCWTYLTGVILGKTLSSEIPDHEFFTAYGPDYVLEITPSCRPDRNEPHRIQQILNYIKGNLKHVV

[2] = molecular target: T1, HDAC8 (histone deacetylase family member 8); conditions: read-out: % inhibition at 60.75 μM
[3] = molecular target: T1, HDAC8 (histone deacetylase family member 8); conditions: read-out: % inhibition at 310.25 μM

Q: For OCC=Cc1ccccc1 [CALC, Cinnamyl alcohol], which inhibition at 24.2 µM [1] is on record?
A: The inhibition at 24.2 µM was 5.7%.

Q: With O=C(O)/C=C/c1ccccc1 [CA, Cinnamic acid] as the compound, how does the inhibition at 60.75 µM [2] read?
A: Its inhibition at 60.75 µM is 9.3%.

Q: For O=C/C=C/c1ccccc1 [CAL, Cinnamaldehyde], which inhibition at 310.25 µM [3] is on record?
A: The inhibition at 310.25 µM was 18.5%.
